Five compounds from US8309721B2, “HSP90 inhibitory carbazole derivatives, compositions containing same and use thereof” (Sanofi, priority 2008, dated 2012) can be followed below.

Data set [1] concerns Her2 receptor expression at the surface of SKBr3 cells. The experiment in a line: phenotypic SKBr3/HER2 cell test (Her2 surface expression by flow cytometry). As to conditions: Homo sapiens, SK-BR-3, 24 h incubation, inhibition of Her2 expression. The format is cell-based. An outline of the steps:
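SKBr3 cells (Her2-overexpressing adenocarcinoma) treated 24 h with compound at varying concentrations, then stained with PE-anti-Her2 antibody 30 min at 4° C; surface Her2 measured by flow cytometry. IC50 from nonlinear fit of % inhibition of Her2 expression versus concentration.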

The next data set concerns the target Hsp82 (Saccharomyces cerevisiae, UniProt P02829). Description: Hsp82/ATPase test (malachite green or PK/LDH coupled method). The format is biochemical. As to conditions: 1 μM Hsp82, 250 μM ATP, 37° C.; read-out: Hsp82 ATPase IC50. An outline of the steps: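 1 μM Hsp82 with 250 μM ATP, 60 min at 37 °C in HEPES-NaOH pH 7.5 with MgCl2, KCl and DTT; released phosphate read by malachite green at 620 nm against a phosphate standard curve. Alternatively, ADP formation is followed continuously by PK/LDH-coupled NADH loss at 340 nm, 37 °C. Results expressed as percent inhibition of ATPase activity.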

Hsp82, sequence (P02829 whole entry): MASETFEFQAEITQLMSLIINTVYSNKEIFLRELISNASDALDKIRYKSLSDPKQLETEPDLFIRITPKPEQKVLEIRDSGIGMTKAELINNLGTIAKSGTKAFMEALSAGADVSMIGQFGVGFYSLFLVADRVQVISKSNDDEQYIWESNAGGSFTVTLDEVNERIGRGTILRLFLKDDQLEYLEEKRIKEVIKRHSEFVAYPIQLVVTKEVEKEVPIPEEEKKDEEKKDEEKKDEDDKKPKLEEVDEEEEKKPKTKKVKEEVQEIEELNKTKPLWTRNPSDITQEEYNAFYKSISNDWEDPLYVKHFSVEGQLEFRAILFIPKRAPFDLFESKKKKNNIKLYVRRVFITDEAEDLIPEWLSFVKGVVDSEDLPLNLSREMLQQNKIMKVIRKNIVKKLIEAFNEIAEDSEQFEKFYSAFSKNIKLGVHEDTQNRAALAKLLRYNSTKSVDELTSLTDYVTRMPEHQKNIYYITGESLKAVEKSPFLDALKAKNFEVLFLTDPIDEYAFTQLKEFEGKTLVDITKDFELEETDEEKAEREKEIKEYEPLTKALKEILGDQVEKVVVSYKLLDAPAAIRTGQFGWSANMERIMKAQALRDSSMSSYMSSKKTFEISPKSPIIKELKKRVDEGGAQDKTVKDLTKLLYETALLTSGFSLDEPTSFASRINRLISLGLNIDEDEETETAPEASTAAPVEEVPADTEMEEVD

For the compound `NC(=O)c1ccc(-c2cccc3c2c2ccccc2n3-c2ccc(C(N)=O)c(N[C@H]3CC[C@H](O)CC3)c2)cn1` [Example 28, 5-(9-{4-carbamoyl-3-[(4-trans-hydroxycyclohexyl)amino]phenyl}-9H-carbazol-4-yl)pyridine-2-carboxamide], the melting point is more than 260 °C. In data set [1], the IC50 was less than 1 µM. In addition, at Hsp82, the IC50 lay within 1 to 10 µM.
For `N#Cc1ccc(-c2cccc3c2c2ccccc2n3-c2ccc(C(N)=O)c(N[C@H]3CC[C@H](O)CC3)c2)cn1` [Example 49, 4-[4-(6-cyanopyridin-3-yl)-9H-carbazol-9-yl]-2-[(4-trans-hydroxycyclohexyl)amino]benzamide], in that order: 274 °C, less than 1 µM and less than 1 µM.
For `COc1cncc(-c2cccc3c2c2ccccc2n3-c2ccc(C(N)=O)c(NCCCO)c2)c1` [Example 66, 2-[(3-hydroxypropyl)amino]-4-[4-(5-methoxypyridin-3-yl)-9H-carbazol-9-yl]benzamide], in that order: 198 °C, 1 to 10 µM and less than 1 µM.
For `NC(=O)c1ccc(-n2c3ccccc3c3c(-c4cncc(OCc5ccccc5)c4)cccc32)cc1NCCCO` [Example 68, 4-{4-[5-(benzyloxy)pyridin-3-yl]-9H-carbazol-9-yl}-2-[(3-hydroxypropyl)amino]benzamide], in that order: 168 °C, 1 to 10 µM and 1 to 10 µM.
For `NC(=O)c1ccc(-n2c3ccccc3c3c(-c4ccc(C(F)(F)F)nc4)cccc32)cc1NCCCO` [Example 69, 2-[(3-hydroxypropyl)amino]-4-{4-[6-(trifluoromethyl)pyridin-3-yl]-9H-carbazol-9-yl}benzamide], the melting point was found to be 180 °C. The IC50 in data set [1] lay in the range of 1 to 10 µM. Moreover, the IC50 on Hsp82 lay within 1 to 10 µM.
